# Tested on: Aβ42
# Assay: In vitro cell screening assay; quantification of Aβ (1-42) peptide by sandwich ELISA
# Assay type: cell-based
# Details: Human neuroglioma H4 cells stably expressing human wild type APP751; compounds 0.003-10 μM, incubated overnight (16-18 h); Aβ42 in supernatant by sandwich ELISA; normalized to DMSO and DAPT; read-out: Aβ42 H4 Prot Fre IC50
# Procedure, shortened: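 Stable H4 neuroglioma line expressing human wild-type APP751; compounds 0.003-10 μM (0.33% DMSO final) added in Pro293 medium 6 h after plating, incubated overnight (16-18 h) at 37 °C. Secreted Aβ42 measured in supernatant by C-terminal-capture sandwich ELISA with 4G8-HRP detection; IC50 by sigmoidal fit, normalized to DMSO and DAPT.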
row,SMILES,IC50
1,"COc1nc(C2=NOC(C3CC3)C(c3cn(C)c4ncc(F)c(F)c34)N2)ccc1-n1cnc(C)c1 (single isomer, unassigned; (-)) [Example 60B, (−)-6-cyclopropyl-5-(4,5-difluoro-1-methyl-1H-pyrrolo [2,3-b]pyridin-3-yl)-3-(6-methoxy-5-(4-methyl-1H-imidazol-1-yl)pyridin-2-yl)-5,6-dihydro-4H-1,2,4-oxadiazine]",42.7 nM
2,"COc1nc(C2=NOC(C3CC3)C(c3cc4ccccc4o3)N2)ccc1-n1cnc(C)c1 (single isomer, unassigned; (-)) [Example 61B, (−)-5-(benzofuran-2-yl)-6-cyclopropyl-3-(6-methoxy-5-(4-methyl-1H-imidazol-1-yl)pyridin-2-yl)-5,6-dihydro-4H-1,2,4-oxadiazine]",598 nM
3,"COc1nc(C2=NOC(C)C(c3cn(C)c4ncc(Cl)c(F)c34)N2)ccc1-n1cnc(C)c1 (single isomer, unassigned; (-)) [Example 62B, (−)-5-(5-chloro-4-fluoro-1-methyl-1H-pyrrolo [2,3-b]pyridin-3-yl)-3-(6-methoxy-5-(4-methyl-1H-imidazol-1-yl)pyridin-2-yl)-6-methyl-5,6-dihydro-4H-1,2,4-oxadiazine]",484 nM
4,"COc1nc(C2=NOC(C3CC3)C(c3cn(C)c4nccc(F)c34)N2)ccc1-n1cnc(C)c1 (single isomer, unassigned; (-)) [Example 63B, (−)-6-cyclopropyl-5-(4-fluoro-1-methyl-1H-pyrrolo [2,3-b]pyridin-3-yl)-3-(6-methoxy-5-(4-methyl-1H-imidazol-1-yl)pyridin-2-yl)-5,6-dihydro-4H-1,2,4-oxadiazine]",105 nM
5,"COc1nc(C2=NOC(C)C(c3ccc(Cl)c(F)c3)N2)ccc1-n1cnc(C)c1 (stereo not drawn) [40-IA or 40-IIA, (−)-(cis)-5-(4-chloro-3-fluorophenyl)-3-(6-methoxy-5-(4-methyl-1H-imidazol-1-yl)pyridin-2-yl)-6-methyl-5,6-dihydro-4H-1,2,4-oxadiazine]",1840 nM
6,"COc1nc(C2=NOC(C)C(c3ccc(Cl)c(F)c3)N2)ccc1-n1cnc(C)c1 (stereo not drawn) [40-IB or 40-IIB, (+)-(cis)-5-(4-chloro-3-fluorophenyl)-3-(6-methoxy-5-(4-methyl-1H-imidazol-1-yl)pyridin-2-yl)-6-methyl-5,6-dihydro-4H-1,2,4-oxadiazine]",7.5 nM
7,"COc1nc(C2=NOC(C3CC3)C(c3cn(C)c4ncc(Cl)cc34)N2)ccc1-n1cnc(C)c1 (stereo not drawn) [57A or 58A, (+)-(cis)-5-(5-chloro-1-methyl-1H-pyrrolo[2,3-b]pyridin-3-yl)-6-cyclopropyl-3-(6-methoxy-5-(4-methyl-1H-imidazol-1-yl)pyridin-2-yl)-5,6-dihydro-4H-1,2,4-oxadiazine]",1240 nM
8,"COc1nc(C2=NOC(C3CC3)C(c3cn(C)c4ncc(Cl)cc34)N2)ccc1-n1cnc(C)c1 (stereo not drawn) [57B or 58B, (−)-(cis)-5-(5-chloro-1-methyl-1H-pyrrolo[2,3-b]pyridin-3-yl)-6-cyclopropyl-3-(6-methoxy-5-(4-methyl-1H-imidazol-1-yl)pyridin-2-yl)-5,6-dihydro-4H-1,2,4-oxadiazine]",6.7 nM
9,"COc1nc(C2=NO[C@@H](C)[C@@H](c3ccc(Cl)cc3)N2)ccc1-n1cnc(C)c1 [Example 18A, (−)-(5R,6S)-5-(4-chlorophenyl)-3-[6-methoxy-5-(4-methyl-1H-imidazol-1-yl)pyridin-2-yl]-6-methyl-5,6-dihydro-4H-1,2,4-oxadiazine]",2220 nM
10,"COc1nc(C2=NO[C@H](C)[C@H](c3ccc(Cl)cc3)N2)ccc1-n1cnc(C)c1 [Example 18B, (+)-(5S,6R)-5-(4-chlorophenyl)-3-[6-methoxy-5-(4-methyl-1H-imidazol-1-yl)pyridin-2-yl]-6-methyl-5,6-dihydro-4H-1,2,4-oxadiazine]",19 nM
11,"COc1nc(C2=NOC(C)C(c3ccc(Cl)c(Cl)c3)N2)ccc1-n1cnc(C)c1 (stereo not drawn) [Example 19A, (−)-cis-5-(3,4-dichlorophenyl)-3-[6-methoxy-5-(4-methyl-1H-imidazol-1-yl)pyridin-2-yl]-6-methyl-5,6-dihydro-4H-1,2,4-oxadiazine]",910 nM

# Source: US20170050980A1, “OXADIAZINE COMPOUNDS AND METHODS OF USE THEREOF” (FORUM Pharmaceuticals Inc., priority 2015, published 2017)
